The values that follow come from ChEMBL document CHEMBL5137039, “Therapeutic potentials and structure-activity relationship of 1,3-benzodioxole N-carbamothioyl carboxamide derivatives as selective and potent antagonists of P2X4 and P2X7 receptors” (Eur J Med Chem, 2022).

The target in data set [1] is T1, P2X purinoceptor 4 (Homo sapiens, UniProt Q99571).
T1 sequence (Q99571 whole entry): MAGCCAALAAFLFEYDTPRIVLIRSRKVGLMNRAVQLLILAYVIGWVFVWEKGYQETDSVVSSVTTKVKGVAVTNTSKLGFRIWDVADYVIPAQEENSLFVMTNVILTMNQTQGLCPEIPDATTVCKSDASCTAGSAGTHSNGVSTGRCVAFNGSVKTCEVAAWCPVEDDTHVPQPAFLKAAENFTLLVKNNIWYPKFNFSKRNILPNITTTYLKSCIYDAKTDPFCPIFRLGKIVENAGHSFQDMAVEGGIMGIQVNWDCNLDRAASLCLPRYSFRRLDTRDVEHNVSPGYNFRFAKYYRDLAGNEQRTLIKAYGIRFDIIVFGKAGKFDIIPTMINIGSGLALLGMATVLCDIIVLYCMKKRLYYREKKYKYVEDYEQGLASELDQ
The experiment in a line: Antagonist activity against human P2X4R stably transfected in human 1321N1 cells incubated for 30 mins by Fura-2 AM staining based calcium influx assay. In kind it is cell-based.

The target of data set [2] is T2, P2X purinoceptor 5 (Homo sapiens, UniProt Q93086). Nature of the data set: Antagonist activity against human P2X5R stably transfected in human 1321N1 cells incubated for 30 mins by Fura-2 AM staining based calcium influx assay. Format: cell-based.
For data set [3], the target named is T3, P2X purinoceptor 7 (Homo sapiens, UniProt Q99572).
T3 sequence (Q99572 whole entry): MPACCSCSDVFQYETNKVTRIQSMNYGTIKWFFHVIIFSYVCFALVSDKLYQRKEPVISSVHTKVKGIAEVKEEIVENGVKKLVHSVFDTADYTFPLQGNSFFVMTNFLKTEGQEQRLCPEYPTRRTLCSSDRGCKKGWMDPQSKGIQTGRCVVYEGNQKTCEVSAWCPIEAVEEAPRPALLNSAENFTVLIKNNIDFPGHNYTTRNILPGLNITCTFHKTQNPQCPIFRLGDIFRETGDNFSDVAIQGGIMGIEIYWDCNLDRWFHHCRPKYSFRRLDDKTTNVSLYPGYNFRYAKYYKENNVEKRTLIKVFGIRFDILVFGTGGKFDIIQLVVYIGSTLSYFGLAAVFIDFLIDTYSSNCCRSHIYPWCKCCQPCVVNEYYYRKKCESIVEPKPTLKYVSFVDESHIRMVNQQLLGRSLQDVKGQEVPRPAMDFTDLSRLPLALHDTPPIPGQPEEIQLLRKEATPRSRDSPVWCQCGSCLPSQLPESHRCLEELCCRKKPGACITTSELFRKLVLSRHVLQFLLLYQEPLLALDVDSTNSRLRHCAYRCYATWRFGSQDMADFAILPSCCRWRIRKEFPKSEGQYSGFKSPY
The experiment in a line: Antagonist activity against human P2X7R stably transfected in human 1321N1 cells incubated for 30 mins by Fura-2 AM staining based calcium influx assay. Format: cell-based.

The target in data set [4] is T3, P2X purinoceptor 7. Nature of the data set: Antagonist activity against human P2X7R stably transfected in human 1321N1 cells assessed as reduction in BzATP-induced activity incubated for 5 to 10 mins by EtBr staining based fluorescence assay. Format: cell-based.
Data set [5] concerns HeLa. Nature of the data set: Cytotoxicity against human HeLa cells assessed as reduction in cell viability at 50 uM after 24 hrs by MTT assay relative to control. Format: toxicity, cell-based. For orientation: Tetrazolium dyes change colour on reduction, which living cells bring about.
The nature of data set [6]: Cytotoxicity against human 1321N1 cells assessed as reduction in cell viability at 50 uM after 24 hrs by MTT assay relative to control. As to conditions: 1321n1, 24 h. Format: toxicity, cell-based.
For data set [7], the system named is HEK293. The experiment in a line: Cytotoxicity against HEK293 cells assessed as reduction in cell viability at 50 uM after 24 hrs by MTT assay relative to control. Format: toxicity, cell-based. The settings on record: human, hek293, 24 h.
In data set [8] the target is T4, P2X purinoceptor 2 (Homo sapiens, UniProt Q9UBL9).
T4 sequence (Q9UBL9 whole entry): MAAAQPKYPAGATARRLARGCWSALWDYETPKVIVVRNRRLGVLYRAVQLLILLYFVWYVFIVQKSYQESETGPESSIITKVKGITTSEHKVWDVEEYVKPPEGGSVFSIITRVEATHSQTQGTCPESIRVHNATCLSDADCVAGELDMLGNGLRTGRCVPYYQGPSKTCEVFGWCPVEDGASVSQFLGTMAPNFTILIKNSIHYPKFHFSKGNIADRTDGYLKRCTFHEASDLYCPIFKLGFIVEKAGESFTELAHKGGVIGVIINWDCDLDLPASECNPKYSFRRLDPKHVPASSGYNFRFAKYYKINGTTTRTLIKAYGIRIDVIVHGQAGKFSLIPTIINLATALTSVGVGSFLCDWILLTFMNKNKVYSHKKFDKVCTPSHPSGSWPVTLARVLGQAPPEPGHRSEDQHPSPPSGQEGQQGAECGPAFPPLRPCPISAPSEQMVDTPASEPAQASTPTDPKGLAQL
Nature of the data set: Antagonist activity against human P2X2R stably transfected in human 1321N1 cells incubated for 30 mins by Fura-2 AM staining based calcium influx assay. In kind it is cell-based.

For data set [9], the target named is T5, P2X purinoceptor 2 (Homo sapiens) (UniProt Q9UBL9).
T5 sequence (whole entry): T4 sequence (Q9UBL9 whole entry)
Nature of the data set: Antagonist activity against human P2X2R stably transfected in human 1321N1 cells at 50 uM incubated for 30 mins by Fura-2 AM staining based calcium influx assay relative to control. Format: cell-based. Also noted: scale not given: the % may be the effect or the level left.

The target in data set [10] is T6, P2X purinoceptor 4 (Homo sapiens) (UniProt Q99571).
T6 sequence (whole entry): T1 sequence (Q99571 whole entry)
The experiment in a line: Antagonist activity against human P2X4R stably transfected in human 1321N1 cells at 50 uM incubated for 30 mins by Fura-2 AM staining based calcium influx assay relative to control. Format: cell-based. More on the design: scale not given: the % may be the effect or the level left.

Data set [11] deals with T2, P2X purinoceptor 5. Nature of the data set: Antagonist activity against human P2X5R stably transfected in human 1321N1 cells at 50 uM incubated for 30 mins by Fura-2 AM staining based calcium influx assay relative to control. Also noted: scale not given: the % may be the effect or the level left. In kind it is cell-based.
For data set [12], the target named is T7, P2X purinoceptor 7 (Homo sapiens) (UniProt Q99572).
T7 sequence (whole entry): T3 sequence (Q99572 whole entry)
The experiment in a line: Antagonist activity against human P2X7R stably transfected in human 1321N1 cells at 50 uM incubated for 30 mins by Fura-2 AM staining based calcium influx assay relative to control. In kind it is cell-based. More on the design: scale not given: the % may be the effect or the level left.

For data set [13], the target named is T6, P2X purinoceptor 4 (Homo sapiens). Nature of the data set: Antagonist activity against human P2X4R stably transfected in human 1321N1 cells assessed as ATP Emax at 0.05 uM incubated for 30 mins by Fura-2 AM staining based calcium influx assay relative to control. In kind it is cell-based. As to conditions: filed as antagonist.
For data set [14] the target is unchanged. The experiment in a line: Antagonist activity against human P2X4R stably transfected in human 1321N1 cells assessed as ATP Emax at 0.1 uM incubated for 30 mins by Fura-2 AM staining based calcium influx assay relative to control. Format: cell-based. The settings on record: filed as antagonist.
For data set [15] the target is unchanged. Nature of the data set: Antagonist activity against human P2X4R stably transfected in human 1321N1 cells assessed as ATP Emax at 0.2 uM incubated for 30 mins by Fura-2 AM staining based calcium influx assay relative to control. Format: cell-based. The settings on record: filed as antagonist.

T2 sequence (Q93086 whole entry): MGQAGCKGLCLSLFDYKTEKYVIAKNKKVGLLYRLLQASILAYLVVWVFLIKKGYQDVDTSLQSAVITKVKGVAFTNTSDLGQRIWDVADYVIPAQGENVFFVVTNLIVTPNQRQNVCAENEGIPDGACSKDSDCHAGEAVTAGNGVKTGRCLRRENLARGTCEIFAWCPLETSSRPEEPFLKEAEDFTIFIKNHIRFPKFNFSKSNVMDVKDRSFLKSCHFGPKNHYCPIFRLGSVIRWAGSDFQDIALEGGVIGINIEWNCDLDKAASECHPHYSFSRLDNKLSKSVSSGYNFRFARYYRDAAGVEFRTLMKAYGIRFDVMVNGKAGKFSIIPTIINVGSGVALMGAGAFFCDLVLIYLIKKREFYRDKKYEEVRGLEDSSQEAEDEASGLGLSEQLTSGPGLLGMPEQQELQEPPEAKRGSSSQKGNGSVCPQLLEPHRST

For `O=C(NC(=S)Nc1ccc(O)cc1)c1ccc2c(c1)OCO2`, the IC50 in [1] turned out to be 1.45 µM; in data set [2], 27.6 µM; in data set [3], 0.902 µM; in data set [4] it was 1.11 µM.

As for `Cc1ccc(C(=O)Nc2ccc(S(=O)(=O)O)c3cc(S(=O)(=O)O)cc(S(=O)(=O)O)c23)cc1NC(=O)c1cccc(NC(=O)Nc2cccc(C(=O)Nc3cc(C(=O)Nc4ccc(S(=O)(=O)O)c5cc(S(=O)(=O)O)cc(S(=O)(=O)O)c45)ccc3C)c2)c1` [SURAMIN], the Activity in data set [5] turned out to be 11.46%; in data set [6], 11.56%; in [7], 49.01%. The IC50 in data set [8] is 14 µM; in data set [1] it was 4.73 µM; in [2], 15.8 µM.

On to `COc1ccc(NC(=S)NC(=O)c2ccc3c(c2)OCO3)cc1`, for which the Activity turned out to be 1.38% in data set [5]; 3.32% in data set [6]; 7.44% in data set [7]; 22% in [9]; 44% in [10] (filed as antagonist); 12% in [11]. The Activity in data set [12] is 36%.

As to `O=C(NC(=S)Nc1c(Br)ccc(C(F)(F)F)c1Br)c1ccc2c(c1)OCO2`, the Activity in data set [5] is 5.35%; in [6], 7.19%; in data set [7], 7.24%; in [9] it was 38%. The IC50 came to 0.055 µM in [1] and 3.56 µM in [3]. For the same molecule, the maximal response (Emax) in [13] worked out at 90%; in data set [14] it was 68%; in [15] it was 40%.

For the molecule `O=C(NC(=S)Nc1ccc(Br)cc1)c1ccc2c(c1)OCO2`, the Activity in data set [5] was determined as 7.64%; in data set [6], 3.72%; in data set [7], 2.64%; in data set [9], 35%; in data set [10] it was 31%; in [11], 38%. Besides, the Activity in [12] is 22%. For the same molecule, the IC50 in data set [1] is 14.3 µM.

Turning to `O=C(NC(=S)Nc1cccnc1Cl)c1ccc2c(c1)OCO2`, the values for the Activity in data set [5], in data set [6] and in [7] were 1.94%, 2.82% and 6.15%, respectively. Besides, the IC50 was 35.9 µM in data set [8], 0.935 µM in [1], 0.034 µM in data set [3] and 0.034 µM in data set [4].

For `COc1cccc(NC(=S)NC(=O)c2ccc3c(c2)OCO3)c1`, the Activity came out at 4.18% in [5]; 4.15% in data set [6]; 1.95% in data set [7]; 22% in data set [9]; 19% in data set [10]; 25% in data set [11]. Moreover, the Activity in data set [12] is 33%.

With `NS(=O)(=O)c1ccc(CCNC(=S)NC(=O)c2ccc3c(c2)OCO3)cc1`, the Activity came out at 4.26% in data set [5]; 5.81% in data set [6]; 5.77% in data set [7]; 33% in data set [9]; 32% in [11]. The IC50 in [1] is 1.05 µM; in data set [3], 0.045 µM; in data set [4] it was 0.047 µM.

For the molecule `O=C(NC(=S)Nc1cc(Cl)c(O)c(Cl)c1)c1ccc2c(c1)OCO2`, the IC50 turned out to be 7.64 µM in data set [1] and 1.64 µM in data set [3].

With `CC(C)c1ccc(NC(=S)NC(=O)c2ccc3c(c2)OCO3)c(Br)c1`, the Activity was 4.53% in [5]; 3.83% in data set [6]; 3.73% in [7]; 35% in [9]; 27% in data set [11]. Further, the IC50 came to 0.039 µM in data set [1] and 13.1 µM in [3].

In the case of `O=C(NC(=S)Nc1ccccc1O)c1ccc2c(c1)OCO2`, the IC50 in data set [1] is 2.16 µM.

With `CC(C)c1cc(Br)c(NC(=O)Nc2cccnc2)c(Br)c1`, the Activity was determined as 14.81% in data set [5], 16.7% in [6], 25.19% in data set [7] and 45% in data set [12] (filed as antagonist).

`O=C(NC(=S)Nc1ccc([N+](=O)[O-])cc1)c1ccc2c(c1)OCO2`: the IC50 came to 3.76 µM in data set [1], 1.65 µM in [2] and 1.89 µM in [3].

Regarding `COc1ccccc1NC(=S)NC(=O)c1ccc2c(c1)OCO2`, the Activity in [5] worked out at 1.7%; in [6] it was 5.41%; in data set [7] it was 4.6%; in [9], 39%; in data set [11], 26%; in data set [12], 38%. For the same molecule, the IC50 in data set [1] was 3.67 µM.

In the case of `Cc1cc(Br)ccc1NC(=S)NC(=O)c1ccc2c(c1)OCO2`, the Activity is 1.64% in data set [5]; 7.09% in data set [6]; 3.38% in [7]; 18% in data set [9]; 25% in data set [11]; 34% in [12]. In data set [1], the IC50 is 14.3 µM.

As to `Cc1nc(/N=N/c2ccc(S(=O)(=O)O)cc2S(=O)(=O)O)c(COP(=O)(O)O)c(C=O)c1O`, the Activity in [5] was 20.43%; in data set [6], 12.41%; in data set [7] it was 46.58%.

As to `O=C(NC(=S)Nc1cc(Br)cc(C(F)(F)F)c1)c1ccc2c(c1)OCO2`, the Activity is 5.59% in data set [5]; 3.34% in data set [6]; 4.48% in data set [7]; 22% in data set [9]; 17% in data set [11]. Moreover, the IC50 amounted to 18.2 µM in data set [1] and 1.25 µM in [3].

Take `NS(=O)(=O)c1cccc(NC(=S)NC(=O)c2ccc3c(c2)OCO3)c1`: the Activity was 2.52% in [5]; 6.41% in data set [6]; 4.19% in data set [7]; 17% in [9]; 23% in data set [11]. For the same molecule, the IC50 in [1] is 2.17 µM; in data set [3], 0.11 µM; in data set [4], 0.173 µM.

Turning to `O=C(O)c1ccc2c(c1)OCO2`, the Activity in [9] came to 21%; in data set [10], 29%; in [11] it was 10%.

As usually defined, the IC50 is the point on the concentration scale where inhibition reaches its midpoint. The term Emax denotes the greatest response seen or fitted, relative to the assay's reference.
